According to patent US10189839B2, “Tricyclic imidazole compounds as inhibitors of tryptophan hydroxylase” (ACTELION PHARMACEUTICALS LTD, priority 2013, dated 2019):

Target: T1, full length human TPH1 (Homo sapiens, UniProt P17752)
T1 construct: To generate the enzyme, full length human TPH1 is cloned into the plasmid pET20b(+); made in house; host or cells: E. coli
T1 sequence (P17752 1-444): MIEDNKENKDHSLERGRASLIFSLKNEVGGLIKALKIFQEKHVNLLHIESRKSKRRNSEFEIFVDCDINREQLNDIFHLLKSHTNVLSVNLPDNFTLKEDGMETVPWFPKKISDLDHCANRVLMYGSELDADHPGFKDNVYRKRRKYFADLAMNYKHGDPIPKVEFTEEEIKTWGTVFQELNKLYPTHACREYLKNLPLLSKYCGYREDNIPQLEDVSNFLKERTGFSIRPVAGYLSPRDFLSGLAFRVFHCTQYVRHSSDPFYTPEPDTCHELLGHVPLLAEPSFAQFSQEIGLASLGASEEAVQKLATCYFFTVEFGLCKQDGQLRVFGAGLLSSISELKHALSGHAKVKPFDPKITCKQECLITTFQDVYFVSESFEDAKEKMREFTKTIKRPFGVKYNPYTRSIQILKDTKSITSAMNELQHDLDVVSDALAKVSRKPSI
Experiment: Biochemical in vitro assay using fluorescence readout (TPH1 enzyme activity)
Conditions: Table 1, mean where determined several times
In short: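 E. coli-expressed full-length human TPH1 (40-80 nM), affinity- and size-exclusion-purified, incubated 60 min at 15° C. in 0.1M Tris-HCl pH 7.6 with 1 mM DTT, 0.2 mg/ml catalase, 100 μM 6-methyltetrahydropterine and 40 μM L-tryptophan. 5-Hydroxy-L-tryptophan read by fluorescence (ex 300/em 540 nm) after HClO4 quench; IC50 versus vehicle, mean where repeated.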

SMILES	IC50
CN(C(=O)c1ccc(OCC(=O)N2CCc3nc4n(c3C2c2ccc(Cl)cc2F)CCCC4)c(Cl)n1)C1CC1 (stereo not drawn) [Example 1.1.4, 6-chloro-5-(2-(1-(4-chloro-2-fluorophenyl)-3,4,6,7,8,9-hexahydroimidazo[1,2-a:5,4-c′]dipyridin-2(1H)-yl)-2-oxoethoxy)-N-cyclopropyl-N-methylpicolinamide]	29 nM
CC(=O)N1CCn2c(nc3c2C(c2ncc(C4CC4)cc2F)N(C(=O)COc2cc(F)cnc2Cl)CC3)C1 (stereo not drawn) [Example 5.4.7, 1-(7-acetyl-1-(5-cyclopropyl-3-fluoropyridin-2-yl)-3,4,6,7,8,9-hexahydropyrido[4′,3′:4,5]imidazo[1,2-a]pyrazin-2(1H)-yl)-2-((2-chloro-5-fluoropyridin-3-yl)oxy)ethanone]	431 nM
COC(=O)c1ccc([C@@H]2c3c(nc4n3CCCC4)CCN2C(=O)COc2ccc(C(=O)NC3CC3)nc2Cl)c(F)c1 [Example 1.23.2, methyl (R)-4-(2-(2-((2-chloro-6-(cyclopropylcarbamoyl)pyridin-3-yl)oxy)acetyl)-1,2,3,4,6,7,8,9-octahydroimidazo[1,2-a:5,4-c′]dipyridin-1-yl)-3-fluorobenzoate]	56 nM
CCc1nc(C(=O)NC2CC2)ccc1OCC(=O)N1CCc2nc3n(c2C1c1ncc(C)cc1F)CCCC3 (stereo not drawn) [Example 1.6.7, N-cyclopropyl-6-ethyl-5-(2-(1-(3-fluoro-5-methylpyridin-2-yl)-3,4,6,7,8,9-hexahydroimidazo[1,2-a:5,4-c′]dipyridin-2(1H)-yl)-2-oxoethoxy)picolinamide]	8 nM
Cc1ccc(C2c3c(nc4n3CCCC4)CCN2C(=O)COc2ccc(-c3ncco3)nc2Cl)c(F)c1F (stereo not drawn) [Example 1.9.1, 2-((2-chloro-6-(oxazol-2-yl)pyridin-3-yl)oxy)-1-(1-(2,3-difluoro-4-methylphenyl)-3,4,6,7,8,9-hexahydroimida-zo[1,2-a:5,4-c′]dipyridin-2(1H)-yl)ethanone]	20 nM
Cc1ccc(C2c3c(nc4n3CCCC4)CCN2C(=O)COc2ccc(C(=O)NC3CC3)nc2Cl)c(F)c1F (stereo not drawn) [Example 1.9.8, 6-chloro-N-cyclopropyl-5-(2-(1-(2,3-difluoro-4-methylphenyl)-3,4,6,7,8,9-hexahydroimidazo[1,2-a:5,4-c′]dipyridin-2(1H)-yl)-2-oxoethoxy)picolinamide]	16 nM
CNC(=O)c1ccc(OCC(=O)N2CCc3nc4n(c3C2c2sc(C)nc2C)CCCC4)c(Cl)n1 (stereo not drawn) [Example 1.10.4, 6-chloro-5-(2-(1-(2,4-dimethylthiazol-5-yl)-3,4,6,7,8,9-hexahydroimidazo[1,2-a:5,4-c′]dipyridin-2(1H)-yl)-2-oxoethoxy)-N-methylpicolinamide]	36 nM
CCNC(=O)Nc1nc(C2c3c(nc4n3CCN(C(C)=O)C4)CCN2C(=O)COc2ccc(N3CCOCC3)nc2Cl)cs1 (stereo not drawn) [Example 5.11.1, 1-(4-(7-acetyl-2-(2-((2-chloro-6-morpholinopyridin-3-yl)oxy)acetyl)-1,2,3,4,6,7,8,9-octahydropyrido[4′,3′:4,5]imidazo[1,2-a]pyrazin-1-yl)thiazol-2-yl)-3-ethylurea]	100 nM
Cc1nc(C)c(C2c3c(nc4n3CCCC4)CCN2C(=O)COc2ccc(C(F)(F)F)nc2Cl)s1 (stereo not drawn) [Example 1.10.7, 2-((2-chloro-6-(trifluoromethyl)pyridin-3-yl)oxy)-1-(1-(2,4-dimethylthiazol-5-yl)-3,4,6,7,8,9-hexahydroimi-dazo[1,2-a:5,4-c′]dipyridin-2(1H)-yl)ethanone]	177 nM
CCc1nc(N2CCCS2(=O)=O)ccc1OCC(=O)N1CCc2nc3n(c2C1c1scnc1C)CCCC3 (stereo not drawn) [Example 1.13.2, 2-((6-(1,1-dioxidoisothiazoli132din-2-yl)-2-ethylpyridin-3-yl)oxy)-1-(1-(4-methylthiazol-5-yl)-3,4,6,7,8,9-hexahydroimidazo[1,2-a:5,4-c′]dipyridin-2(1H)-yl)ethanone]	15 nM
CC(=O)N1CCn2c(nc3c2C(c2cc(Cl)ccn2)N(C(=O)COc2ccc(N4CCOCC4)nc2Cl)CC3)C1 (stereo not drawn) [Example 5.16.1, 1-(7-acetyl-1-(4-chloropyridin-2-yl)-3,4,6,7,8,9-hexahydropyrido[4′,3′:4,5]imidazo[1,2-a]pyrazin-2(1H)-yl)-2-((2-chloro-6-morpholinopyridin-3-yl)oxy)ethanone]	48 nM

The remaining lines, values ahead:

IC50	SMILES
12 nM	CCc1nc(N2CCCS2(=O)=O)ccc1OCC(=O)N1CCc2nc3n(c2C1c1ccc(Cl)cc1F)CCS3 (stereo not drawn) [Example 4.1.6, 1-(5-(4-chloro-2-fluorophenyl)-2,3,7,8-tetrahydrothiazolo[2′,3′:2,3]imidazo[4,5-c]pyridin-6(5H)-yl)-2-((6-(1,1-dioxidoisothiazolidin-2-yl)-2-ethylpyridin-3-yl)oxy)ethanone]
143 nM	CS(=O)(=O)Nc1ccc(OCC(=O)N2CCc3nc4n(c3C2c2ncc(Cl)cc2F)CCOC4)c(Cl)n1 (stereo not drawn) [Example 6.4.1, N-(6-chloro-5-(2-(6-(5-chloro-3-fluoropyridin-2-yl)-3,4,8,9-tetrahydro-1H-pyrido[4′,3′:4,5]imidazo[2,1-c][1,4]oxazin-7(6H)-yl)-2-oxoethoxy)pyridin-2-yl)methanesulfonamide]
6 nM	CCc1nc(NS(C)(=O)=O)ccc1OCC(=O)N1CCc2nc3n(c2C1c1ccc(C2CC2)cc1F)CCS3 (stereo not drawn) [Example 4.3.1, N-(5-(2-(5-(4-cyclopropyl-2-fluorophenyl)-2,3,7,8-tetrahydrothiazolo[2′,3′:2,3]imidazo[4,5-c]pyridin-6(5H)-yl)-2-oxoethoxy)-6-ethylpyridin-2-yl)methanesulfonamide]
13 nM	CS(=O)(=O)Nc1ccc(OCC(=O)N2CCc3nc4n(c3C2c2ccc(Cl)cc2F)CCC4)c(Cl)n1 (stereo not drawn) [Example 2.1.1, N-(6-chloro-5-(2-(1-(4-chloro-2-fluorophenyl)-3,4,7,8-tetrahydro-1H-pyrrolo[2′,1′:2,3]imidazo[4,5-c]pyridin-2(6H)-yl)-2-oxoethoxy)pyridin-2-yl)methanesulfonamide]
28 nM	CCc1nc(C)ccc1OCC(=O)N1CCc2nc3n(c2C1c1ccc(Cl)cc1F)CCS3 (stereo not drawn) [Example 4.1.8, 1-(5-(4-chloro-2-fluorophenyl)-2,3,7,8-tetrahydrothiazolo[2′,3′:2,3]imidazo[4,5-c]pyridin-6(5H)-yl)-2-((2-ethyl-6-methylpyridin-3-yl)oxy)ethanone]
44 nM	CCc1nc(NS(C)(=O)=O)ccc1OCC(=O)N1CCc2nc3n(c2C1c1scnc1C)CCCC3 (stereo not drawn) [Example 1.13.1, N-(6-ethyl-5-(2-(1-(4-methylthiazol-5-yl)-3,4,6,7,8,9-hexahydroimidazo[1,2-a:5,4-c′]dipyridin-2(1H)-yl)-2-oxoethoxy)pyridin-2-yl)methanesulfonamide207]
108 nM	N#Cc1ccc(OCC(=O)N2CCc3nc4n(c3C2c2ccc(C3CC3)cc2F)CCNC4)c(Cl)n1 (stereo not drawn) [Example 5.2.11, 6-chloro-5-(2-(1-(4-cyclopropyl-2-fluorophenyl)-3,4,6,7,8,9-hexahydropyrido[4′,3′:4,5]imidazo[1,2-a]pyrazin-2(1H)-yl)-2-oxoethoxy)picolinonitrile]
8 nM	CCc1nc(C(=O)NC2CC2)ccc1OCC(=O)N1CCc2nc3n(c2C1c1ncc(C2CC2)cc1F)CCS3 (stereo not drawn) [Example 4.2.1, N-cyclopropyl-5-(2-(5-(5-cyclopropyl-3-fluoropyridin-2-yl)-2,3,7,8-tetrahydrothiazolo[2′,3′:2,3]imidazo[4,5-c]pyridin-6(5H)-yl)-2-oxoethoxy)-6-ethylpicolinamide]
9 nM	O=C(NC1CC1)c1ccc(OCC(=O)N2CCc3nc4n(c3C2c2ccc(Cl)cc2F)CCS4)c(Cl)n1 (stereo not drawn) [Example 4.1.12, 6-chloro-5-(2-(5-(4-chloro-2-fluorophenyl)-2,3,7,8-tetrahydrothiazolo[2′,3′:2,3]imidazo[4,5-c]pyridin-6(5H)-yl)-2-oxoethoxy)-N-cyclopropylpicolinamide]
49 nM	CCc1nc(C)c(C2c3c(nc4n3CCCC4)CCN2C(=O)COc2ccc(NS(C)(=O)=O)nc2Cl)s1 (stereo not drawn) [Example 1.11.1, N-(6-chloro-5-(2-(1-(2-ethyl-4-methylthiazol-5-yl)-3,4,6,7,8,9-hexahydroimidazo[1,2-a:5,4-c′]dipyridin-2(1H)-yl)-2-oxoethoxy)pyridin-2-yl)methanesulfonamide]
6 nM	CC(=O)N1CCn2c(nc3c2C(c2ccc(C4CC4)cc2F)N(C(=O)COc2ccc(N4CC(F)(F)C4)nc2Cl)CC3)C1 (stereo not drawn) [Example 5.2.12, 1-(7-acetyl-1-(4-cyclopropyl-2-fluorophenyl)-3,4,6,7,8,9-hexahydropyrido[4′,3′:4,5]imidazo[1,2-a]pyrazin-2(1H)-yl)-2-((2-chloro-6-(3,3-difluoroazetidin-1-yl)pyridin-3-yl)oxy)ethanone]
74 nM	CCc1nc(C)ccc1OCC(=O)N1CCc2nc3n(c2C1c1ccc(C2CC2)cc1F)CCN(C(=O)OC(C)(C)C)C3 (stereo not drawn) [Example 5.2.1, tert-butyl 1-(4-cyclopropyl-2-fluorophenyl)-2-(2-((2-ethyl-6-methylpyridin-3-yl)oxy)acetyl)-1,2,3,4,8,9-hexahydropyrido[4′,3′:4,5]imidazo[1,2-a]pyrazine-7(6H)-carboxylate]

Same assay, conditions: Table 2

IC50	SMILES
15 nM	CN(CCO)c1ccc(OCC(=O)N2CCc3nc4n(c3C2c2ccc(Cl)cc2F)CCCC4)c(Cl)n1 (stereo not drawn) [Example 1.1.27]
